# Test results published in paper PMC7537607 (Computational Biology and Chemistry, 2020).
# Values joined by “and” are separate entries in the source; they are usually repeats but may differ in a detail not shown here. Equal entries are not always repeated. Where two headings read alike, the source gives them in different places.
# Legend:
# in vitro = conditions: human; for viability: 48 h
# Reovirus-1 = assay: organism not typed; format: cell-based; conditions: for EC50: Vero, read-out: EC50 Reovirus-1
# Sindbis virus = assay: microbe, parasite or virus in culture; format: cell-based; conditions: Vero, read-out: EC50 Sindbis virus
# Para-influenza-3 virus = assay: organism not typed; format: cell-based; conditions: for EC50: Vero, read-out: EC50 Para-influenza-3 virus
# Coxsackie virus B4 = assay: microbe, parasite or virus in culture; format: cell-based; conditions: Enterovirus B, B4, Vero, read-out: EC50 Coxsackie virus B4
# Punta Toro virus = assay: microbe, parasite or virus in culture; format: cell-based; conditions: Vero, read-out: EC50 Punta Toro virus
# Yellow Fever virus = assay: microbe, parasite or virus in culture; format: cell-based; conditions: for EC50: Yellow fever virus, Vero, read-out: EC50 Yellow Fever virus
# HIV-1 (strain NL4.3) = assay: microbe, parasite or virus in culture; format: cell-based
# [1] = Cytotoxicity % Viability Exp - 1, 10 μg/mL
# [2] = Cytotoxicity % Viability Exp - 1, 100 μg/mL
Molecule,viability (in vitro; [1]),viability (in vitro; [2]),EC50 (Reovirus-1),EC50 (Sindbis virus),EC50 (Para-influenza-3 virus),EC50 (Coxsackie virus B4),EC50 (Punta Toro virus),"SI (Yellow Fever Virus), ratio of MCC to EC50 (Yellow Fever virus)",EC50 (Yellow Fever virus),Minimum cytotoxic concentration (MCC) (Vero cells; African green monkey),CC50 (in vitro),"viability (in vitro; Cytotoxicity % Viability Exp - 2, 1 μg/mL)","viability (in vitro; Cytotoxicity % Viability Exp - 2, 5 μg/mL)","viability (in vitro; Cytotoxicity % Viability Exp - 2, 10 μg/mL)",SI (Selectivity index ratio CC50/IC50) (HIV-1 (strain NL4.3)),"IC50 (HIV-1 (strain NL4.3); Human immunodeficiency virus 1, TZM-bl, read-out: IC50 (HIV infection))",EC50 Reovirus-1 (Reovirus-1),EC50 Para-influenza-3 virus (Para-influenza-3 virus),Minimum cytotoxic concentration (MCC) (Vero cells),"Minimum cytotoxic concentration (MCC), molar value in parentheses (Vero cells)"
"OCCn1c(Cl)nc2ccccc21 [Compound 1a, 2-(2-Chloro-1H-benzimidazol-1-yl)ethan-1-ol]",90.1%,53.6%,> 100 µg/mL,> 100 µg/mL,> 100 µg/mL,> 100 µg/mL,> 100 µg/mL,1,> 100 µg/mL,>100 µg/mL,–,–,–,–,–,–,–,–,–,–
"OCCCn1c(Cl)nc2ccccc21 [Compound 1b, 3-(2-Chloro-1H-benzimidazol-1-yl)propan-1-ol]",92.6%,58.6%,> 100 µg/mL,> 100 µg/mL,> 100 µg/mL,> 100 µg/mL,> 100 µg/mL,1,> 100 µg/mL,>100 µg/mL,–,–,–,–,–,–,–,–,–,–
"O=[N+]([O-])c1ccc2c(c1)nc(Cl)n2CCO [Compound 2a, 2-(2-Chloro-5-nitro-1H-benzimidazol-1-yl)ethan-1-ol]",104%,40.4%,> 100 µg/mL,> 100 µg/mL,> 100 µg/mL,> 100 µg/mL,> 100 µg/mL,1,> 100 µg/mL,≥100 µg/mL,–,–,–,–,–,–,–,–,–,–
"O=[N+]([O-])c1ccc2c(c1)nc(Cl)n2CCCO [Compound 2b, 3-(2-Chloro-5-nitro-1H-benzimidazol-1-yl)propan-1-ol]",91.2%,69.1%,> 100 µg/mL,> 100 µg/mL,> 100 µg/mL,> 100 µg/mL,> 100 µg/mL,–,–,–,–,–,–,–,–,–,–,–,–,–
"OCCn1c(Cl)nc2cc(Br)c(Br)cc21 [Compound 3a, 2-(5,6-Dibromo-2-chloro-1H-benzimidazol-1-yl)ethan-1-ol]",18.5%,0.96%,> 100 µg/mL,> 100 µg/mL,> 100 µg/mL,> 100 µg/mL,> 100 µg/mL,1,> 100 µg/mL,100 µg/mL,3.74 µg/mL and 10.5 µM,83.7%,49%,13.7%,2.73,1.37 µg/mL,–,–,–,–
"OCCCn1c(Cl)nc2cc(Br)c(Br)cc21 [Compound 3b, 3-(5,6-Dibromo-2-chloro-1H-benzimidazol-1-yl)propan-1-ol]",102%,79.8%,> 100 µg/mL,> 100 µg/mL,> 100 µg/mL,> 100 µg/mL,> 100 µg/mL,1,> 100 µg/mL,>100 µg/mL,–,–,–,–,–,–,–,–,–,–
"O=[N+]([O-])c1cc2nc(Cl)n(CCO)c2cc1[N+](=O)[O-] [Compound 4a, 2-(2-Chloro-5,6-dinitro-1H-benzimidazol-1-yl)ethan-1-ol]",99.9%,11.2%,> 100 µg/mL,> 100 µg/mL,> 100 µg/mL,> 100 µg/mL,> 100 µg/mL,1,> 100 µg/mL,>100 µg/mL,–,–,–,–,–,–,–,–,–,–
"O=[N+]([O-])c1cc2nc(Cl)n(CCCO)c2cc1[N+](=O)[O-] [Compound 4b, 3-(2-Chloro-5,6-dinitro-1H-benzimidazol-1-yl)propan-1-ol]",92.1%,90.9%,> 100 µg/mL,> 100 µg/mL,> 100 µg/mL,> 100 µg/mL,> 100 µg/mL,1,> 100 µg/mL,≥100 µg/mL,–,–,–,–,–,–,–,–,–,–
"COc1c(C)c2c(c(O)c1C/C=C(\C)CCC(=O)O)C(=O)OC2 [Mycophenolic acid, reference compound]",–,–,6 µM,8.9 µM,0.6 µM,> 100 µM,14 µM,125,0.8 µM,–,–,–,–,–,–,–,–,–,–,–
"Cc1ccnc2c1NC(=O)c1cccnc1N2C1CC1 [Nevirapine, reference compound]",–,–,–,–,–,–,–,–,–,–,–,–,–,–,>200,–,–,–,–,–
"NC(=O)c1ncn([C@@H]2O[C@H](CO)[C@@H](O)[C@H]2O)n1 [Ribavirin, reference compound]",–,–,> 250 µM,> 250 µM,250 µM,> 250 µM,> 250 µM,1,> 250 µM,–,–,–,–,–,–,–,–,–,–,–
"dextran sulfate [DS - 10.000, reference compound]",–,–,–,–,–,–,–,125,–,–,–,–,–,–,–,–,>100 µg/mL,>100 µg/mL,>100 (0.01μM) μg/mL,>100 (0.01μM)
